Measurements published in patent publication US12054486B2, “Pyridine derivatives and their use as sodium channel activators” (Xenon Pharmaceuticals Inc., priority 2021, dated 2024).
Structures can show the parent of a compound that is named as a salt.

What follows are molecules tested against sodium channel isoforms of interest stably expressed in Human Embryonic Kidney Cells (voltage-gated sodium channel, particularly NaV1.1) (Homo sapiens, UniProt P35498) (assay: automated planar patch clamp assay of sodium channel gating (area under the sodium current trace)). Details: HEK cells, voltage step from −120 mV to 0 mV, increasing concentrations.
Type: cell-based
Text: A typical assay described in Crestey, F. et al., ACS Chem Neurosci (2015), Vol. 6, pp. 1302-1308, AA43279 (Frederiksen, K. et al., Eur J Neurosci (2017), Vol. 46, pp. 1887-1896) and Lu AE98134 (von Schoubyea, N. L. et al., Neurosci Lett (2018), Vol. 662, pp. 29-35) employs the use of automated planar patch clamp techniques to study the effects of the chemical agent on the gating of sodium channels. The sodium channel isoforms of interest are stably expressed in Human Embryonic Kidney Cells and the currents that flow through those channels in response to a depolarizing voltage clamp step from −120 mV to 0 mV are measured in the presence of increasing concentrations of the chemical agents. The area under the sodium current trace which correlates to the magnitude of sodium flux through the cell membrane is used to quantify the effects on gating of the channels. Other parameters that are measured in the assay include the peak current, time constant of open state inactivation and the voltage dependence of steady state inactivation properties. The concentration responses are used to determine potency of each chemical agents effects on modulating the sodium channel isoform gating. Such techniques are known to those skilled in the art, and may be developed, using current technologies, into low or medium throughput assays for evaluating compounds for their ability to modulate sodium channel behaviour.
As disclosed above, typical assays for testing compounds of the disclosure are known, for example as disclosed in Crestey, F. et al., ACS Chem Neurosci (2015), Vol. 6, pp. 1302-1308, AA43279 (Frederiksen, K. et al., Eur J Neurosci (2017), Vol. 46, pp. 1887-1896) and Lu AE98134 (von Schoubyea, N. L. et al., Neurosci Lett (2018), Vol. 662, pp. 29-35) which employs the use of automated planar patch clamp techniques to study the effects of the chemical agent on the gating of sodium channels. The sodium channel isoforms of interest are stably expressed in Human Embryonic Kidney Cells and the currents that flow through those channels in response to a depolarizing voltage clamp step from −120 mV to 0 mV are measured in the presence of increasing concentrations of the chemical agents. The area under the sodium current trace which correlates to the magnitude of sodium flux through the cell membrane is used to quantify the effects on gating of the channels. Other parameters that are measured in the assay include the peak current, time constant of open state inactivation and the voltage dependence of steady state inactivation properties. The concentration responses are used to determine potency of each chemical agents effects on modulating the sodium channel isoform gating.

| SMILES | EC50 [µM] | Empirical Emax |
| --- | --- | --- |
| Fc1ccc(F)c(-c2ccnc(N3CC[C@H](F)C3)c2-c2nc3cnc(Cl)cc3[nH]2)c1 [Example 1, (S)-6-chloro-2-(4-(2,5-difluorophenyl)-2-(3-fluoropyrrolidin-1-yl)pyridin-3-yl)-1H-imidazo[4,5-c]pyridine] | < 1 | ++++ (++++ indicates a value greater than 7.5) |
| Fc1ccccc1-c1ccnc(N2CCCC2)c1-c1nc2ncccc2[nH]1 [Example 2, 2-(4-(2-fluorophenyl)-2-(pyrrolidin-1-yl)pyridine-3-yl)-1H-imidazo[4,5-b]pyridine] | 1 to 10 | ++++ (++++ indicates a value greater than 7.5) |
| Fc1ccccc1-c1ccnc(N2CCCC2)c1-c1nc2ccccc2[nH]1 [Example 3, 2-(4-(2-fluorophenyl)-2-(pyrrolidin-1-yl)pyridin-3-yl)-1H-benzo[d]imidazole] | 1 to 10 | ++++ (++++ indicates a value greater than 7.5) |
| Nc1nnc(-c2c(-c3ccccc3F)ccnc2N2CCCC2)o1 [Example 4, 5-(4-(2-fluorophenyl)-2-(pyrrolidin-1-yl)pyridin-3-yl)-1,3,4-oxadiazol-2-amine] | ≥ 50 | +++ (+++ indicates a value from 5.0 up to 7.5 μM) |
| CC(C)CC1CN=C(c2c(-c3ccccc3F)ccnc2N2CCCC2)N1 (stereo not drawn) [Example 5, 4-(2-fluorophenyl)-3-(5-isobutyl-4,5-dihydro-1H-imidazol-2-yl)-2-(pyrrolidin-1-yl)pyridine] | 1 to 10 | + (+ indicates a value less than 2.0 μM) |
| Clc1ccccc1-c1ccnc(N2CCCC2)c1-c1nc2ccccc2[nH]1 [Example 6, 2-(4-(2-chlorophenyl)-2-(pyrrolidin-1-yl)pyridin-3-yl)-1H-benzo[d]imidazole] | 1 to 10 | ++ (++ indicates a value from 2.0 up to 5.0 μM) |
| Cc1ccccc1-c1ccnc(N2CCCC2)c1-c1nc2ccccc2[nH]1 [Example 7, 2-(2-(pyrrolidin-1-yl)-4-(o-tolyl)pyridin-3-yl)-1H-benzo[d]imidazole] | 1 to 10 | ++ (++ indicates a value from 2.0 up to 5.0 μM) |
| Cc1ccccc1-c1ccnc(N2CCOCC2)c1-c1nc2ccccc2[nH]1 [Example 8, 4-(3-(1H-benzo[d]imidazol-2-yl)-4-(o-tolyl)pyridin-2-yl)morpholine] | 10 to 50 | +++ (+++ indicates a value from 5.0 up to 7.5 μM) |
| Fc1ccccc1-c1ccnc(N2CC[C@H](F)C2)c1-c1nnco1 [Example 9, (S)-2-(4-(2-fluorophenyl)-2-(3-fluoropyrrolidin-1-yl)pyridin-3-yl)-1,3,4-oxadiazole] | ≥ 50 | ++ (++ indicates a value from 2.0 up to 5.0 μM) |
| c1ccc(-c2ccnc(N3CCCC3)c2-c2nc3ccccc3[nH]2)nc1 [Example 10, 2-(2′-(pyrrolidin-1-yl)-[2,4′-bipyridin]-3′-yl)-1H-benzo[d]imidazole] | 10 to 50 | ++ (++ indicates a value from 2.0 up to 5.0 μM) |
| Fc1ccccc1-c1ccnc(N2CCCC2)c1-c1nc2ccncc2[nH]1 [Example 11, 2-(4-(2-fluorophenyl)-2-(pyrrolidin-1-yl)pyridin-3-yl)-3H-imidazo[4,5-c]pyridine Formic Acid Salt] | 1 to 10 | ++++ (++++ indicates a value greater than 7.5) |
| CCCCNc1nnc(-c2c(-c3ccccc3F)ccnc2N2CC[C@H](F)C2)o1 [Example 12, (S)—N-butyl-5-(4-(2-fluorophenyl)-2-(3-fluoropyrrolidin-1-yl)pyridin-3-yl)-1,3,4-oxadiazol-2-amine] | 10 to 50 | ++ (++ indicates a value from 2.0 up to 5.0 μM) |
| CC(C)CCc1nnc(-c2c(-c3ccccc3O)ccnc2N2CC[C@H](F)C2)o1 [Example 13, (S)-2-(2-(3-fluoropyrrolidin-1-yl)-3-(5-isopentyl-1,3,4-oxadiazol-2-yl)pyridin-4-yl)phenol] | ≥ 50 | + (+ indicates a value less than 2.0 μM) |
| F[C@H]1CCN(c2nccc(C3=CCCC3)c2-c2nc3ccccc3[nH]2)C1 [Example 14, (S)-2-(4-(cyclopent-1-en-1-yl)-2-(3-fluoropyrrolidin-1-yl)pyridin-3-yl)-1H-benzo[d]imidazole] | 1 to 10 | ++ (++ indicates a value from 2.0 up to 5.0 μM) |
| Fc1cccnc1-c1ccnc(N2CCCC2)c1-c1nc2ccccc2[nH]1 [Example 15, 2-(3-fluoro-2′-(pyrrolidin-1-yl)-[2,4′-bipyridin]-3′-yl)-1H-benzo[d]imidazole] | 10 to 50 | ++++ (++++ indicates a value greater than 7.5) |
| c1ccc(-c2ccnc(N3CCCC3)c2-c2nc3ccccc3[nH]2)cc1 [Example 16, 2-(4-phenyl-2-(pyrrolidin-1-yl)pyridin-3-yl)-1H-benzo[d]imidazole] | 1 to 10 | +++ (+++ indicates a value from 5.0 up to 7.5 μM) |
| F[C@H]1CCN(c2nccc(-c3ccccc3)c2-c2nc3ccccc3[nH]2)C1 [Example 17, (S)-2-(2-(3-fluoropyrrolidin-1-yl)-4-phenylpyridin-3-yl)-1H-benzo[d]imidazole] | 1 to 10 | ++++ (++++ indicates a value greater than 7.5) |
| Fc1ccccc1-c1ccnc(N2CC[C@H](F)C2)c1-c1nc2ccccc2[nH]1 [Example 18, (S)-2-(4-(2-fluorophenyl)-2-(3-fluoropyrrolidin-1-yl)pyridin-3-yl)-1H-benzo[d]imidazole] | 1 to 10 | ++++ (++++ indicates a value greater than 7.5) |
| F[C@H]1CCN(c2nccc(-c3ccccc3)c2-c2cc(-c3cccnc3)[nH]n2)C1 [Example 19, (S)-2-(3-fluoropyrrolidin-1-yl)-4-phenyl-3-(5-(pyridin-3-yl)-1H-pyrazol-3-yl)pyridine] | 10 to 50 | ++ (++ indicates a value from 2.0 up to 5.0 μM) |
| CC(C)c1ccc(-c2cc(-c3c(-c4ccccc4)ccnc3N3CC[C@H](F)C3)n[nH]2)cc1 [Example 20, (S)-2-(3-fluoropyrrolidin-1-yl)-3-(5-(4-isopropylphenyl)-1H-pyrazol-3-yl)-4-phenylpyridine] | 10 to 50 | ++ (++ indicates a value from 2.0 up to 5.0 μM) |
| Fc1cc(F)cc(-c2ccnc(N3CCCC3)c2-c2nc3ccccc3[nH]2)c1 [Example 23, 2-(4-(3,5-difluorophenyl)-2-(pyrrolidin-1-yl)pyridin-3-yl)-1H-benzo[d]imidazole] | 1 to 10 | ++ (++ indicates a value from 2.0 up to 5.0 μM) |
| F[C@H]1CCN(c2nccc(-c3ccccc3)c2C2=N[C@@H]3CCCC[C@H]3N2)C1 [Example 24, (3aR,7aR)-2-(2-((S)-3-fluoropyrrolidin-1-yl)-4-phenylpyridin-3-yl)-3a,4,5,6,7,7a-hexahydro-1H-benzo[d]imidazole] | 1 to 10 | + (+ indicates a value less than 2.0 μM) |
| c1ccc(-c2ccnc(N3CCOCC3)c2C2=N[C@@H]3CCCC[C@H]3N2)cc1 [Example 25, 4-(3-((3aR,7aR)-3a,4,5,6,7,7a-hexahydro-1H-benzo[d]imidazol-2-yl)-4-phenylpyridin-2-yl)morpholine] | 1 to 10 | + (+ indicates a value less than 2.0 μM) |
| CC1CN=C(c2c(-c3ccccc3)ccnc2N2CC[C@H](F)C2)N1 (stereo partly drawn) [Example 26, 2-((S)-3-fluoropyrrolidin-1-yl)-3-(5-methyl-4,5-dihydro-1H-imidazol-2-yl)-4-phenylpyridine] | 1 to 10 | + (+ indicates a value less than 2.0 μM) |
| Cc1[nH]c(-c2c(-c3ccccc3)ccnc2N2CC[C@H](F)C2)nc1Br [Example 27, (S)-3-(4-bromo-5-methyl-1H-imidazol-2-yl)-2-(3-fluoropyrrolidin-1-yl)-4-phenylpyridine] | 1 to 10 | ++ (++ indicates a value from 2.0 up to 5.0 μM) |
| c1ccc(-c2cnnc(N3CCCC3)c2-c2nc3ccccc3[nH]2)cc1 [Example 28, 2-(5-phenyl-3-(pyrrolidin-1-yl)pyridazin-4-yl)-1H-benzo[d]imidazole] | 10 to 50 | ++ (++ indicates a value from 2.0 up to 5.0 μM) |
| F[C@H]1CCN(c2nccc(-c3ccccc3)c2-c2nc3c([nH]2)CCCC3)C1 [Example 29, (S)-2-(2-(3-fluoropyrrolidin-1-yl)-4-phenylpyridin-3-yl)-4,5,6,7-tetrahydro-1H-benzo[d]imidazole] | < 1 | ++ (++ indicates a value from 2.0 up to 5.0 μM) |
